Results taken from patent publication US11053204B2, “Pyrimidinyloxy benzene derivatives as herbicides” (FMC Corporation, priority 2015, dated 2021).

Legend:
Type in all cases: in vivo
[1] = test system: johnsongrass (Sorghum halepense); assay: Test C postemergence, plant response rating; conditions: for Johnsongrass plant response rating: scale 0 to 100 (0 no effect, 100 complete control)
In short: (§1)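 Both timings shared one formulation, a non-phytotoxic solvent mixture with surfactant, and a greenhouse period of 13 to 15 d. Preemergence used seeded loam/sand or silt loam soil, postemergence used 2 to 18 cm plants; visual ratings ran from 0 (no effect) to 100 (complete control).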

[2] = test system: surinam grass (Brachiaria decumbens); assay: Test C postemergence, plant response rating; conditions: for Surinam Grass plant response rating: 125 g ai/ha, scale 0 to 100 (0 no effect, 100 complete control)
In short: as §1

[3] = test system: wild poinsettia (Euphorbia heterophylla); assay: Test C postemergence, plant response rating; conditions: for Poinsettia, Wild plant response rating: scale 0 to 100 (0 no effect, 100 complete control)
In short: as §1

[4] = test system: barnyardgrass (Echinochloa crus-galli); assay: Test A postemergence, visual injury rating; conditions: 0 is no effect, 100 is complete control; for Barnyardgrass plant response rating: 0 to 100 scale, approximately 10 days
In short: (§2)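 Visual 0–100 rating (100 = complete control) taken about 10 d post-treatment relative to untreated checks. Preemergence: directed soil spray on sown loam/sand pots. Postemergence: seedlings 2–10 cm, 1–2 leaf. Non-phytotoxic solvent formulation with surfactant.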

[5] = test system: wheat (Triticum aestivum); assay: Test A postemergence, visual injury rating; conditions: 0 to 100 scale, 0 is no effect, 100 is complete control, approximately 10 days
In short: as §2

[6] = test system: corn (Zea mays); assay: Test A postemergence, visual injury rating; conditions: 0 is no effect, 100 is complete control; for Corn plant response rating: 0 to 100 scale, approximately 10 days
In short: as §2

[7] = test system: giant foxtail (Setaria faberii); assay: Test A postemergence, visual injury rating; conditions: 0 is no effect, 100 is complete control; for Foxtail, Giant plant response rating: 0 to 100 scale, approximately 10 days
In short: as §2

[8] = test system: galium (catchweed bedstraw, Galium aparine); assay: Test A postemergence, visual injury rating; conditions: 0 is no effect, 100 is complete control; for Galium plant response rating: 0 to 100 scale, approximately 10 days
In short: as §2

[9] = test system: pigweed (Amaranthus retroflexus); assay: Test A postemergence, visual injury rating; conditions: 0 to 100 scale, 0 is no effect, 100 is complete control, approximately 10 days
In short: as §2

[10] = test system: ragweed (common ragweed, Ambrosia elatior); assay: Test A postemergence, visual injury rating; conditions: 0 to 100 scale, 0 is no effect, 100 is complete control, approximately 10 days
In short: as §2

[11] = test system: Italian ryegrass (Lolium multiflorum); assay: Test A postemergence, visual injury rating; conditions: 0 to 100 scale, 0 is no effect, 100 is complete control, approximately 10 days
In short: as §2

[12] = test system: kochia (Kochia scoparia); assay: Test A postemergence, visual injury rating; conditions: 0 to 100 scale, 0 is no effect, 100 is complete control, approximately 10 days
In short: as §2

[13] = test system: blackgrass (Alopecurus myosuroides); assay: Test A postemergence, visual injury rating; conditions: 0 is no effect, 100 is complete control; for Blackgrass plant response rating: 0 to 100 scale, approximately 10 days
In short: as §2

[14] = test system: kochia (Kochia scoparia); assay: Test C preemergence, plant response rating
[15] = test system: ducksalad (Heteranthera limosa); assay: Test B flooded paddy test, plant response rating; conditions: 250 g ai/ha; Flood; scale of 0 to 100 where 0 is no effect and 100 is complete control; 13 to 15 days
In short: (§3)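 In-water treatment: compound dosed into 3 cm flood over soil, water level unchanged throughout. Controls run alongside; visual assessment at day 13–15.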

[16] = test system: barnyardgrass (Echinochloa crus-galli); assay: Test B flooded paddy test, plant response rating; conditions: 250 g ai/ha; Flood; scale of 0 to 100 where 0 is no effect and 100 is complete control; 13 to 15 days
In short: as §3

[17] = test system: rice (Oryza sativa); assay: Test B flooded paddy test, plant response rating; conditions: 250 g ai/ha; Flood; scale of 0 to 100 where 0 is no effect and 100 is complete control; 13 to 15 days
In short: as §3

[18] = test system: sedge, umbrella (small-flower umbrella sedge, Cyperus difformis); assay: Test B flooded paddy test, plant response rating; conditions: 250 g ai/ha; Flood; scale of 0 to 100 where 0 is no effect and 100 is complete control; 13 to 15 days
In short: as §3

SMILES	Plant response rating, Johnsongrass ([1]; 16 g ai/ha, scale of 0 to 100)	Plant response rating, Johnsongrass ([1]; 31 g ai/ha, scale 0 to 100)	Johnsongrass plant response rating ([1]; 62 g ai/ha)	Johnsongrass plant response rating ([1]; 125 g ai/ha)	Plant response rating, Surinam Grass ([2]; 16 g ai/ha, scale of 0 to 100)	Plant response rating, Surinam Grass ([2]; 31 g ai/ha, scale 0 to 100)	Surinam Grass plant response rating [2]	Plant response rating, Poinsettia, Wild ([3]; 16 g ai/ha, scale of 0 to 100)	Plant response rating, Poinsettia, Wild ([3]; 31 g ai/ha, scale 0 to 100)	Poinsettia, Wild plant response rating ([3]; 62 g ai/ha)	Poinsettia, Wild plant response rating ([3]; 125 g ai/ha)	Barnyardgrass plant response rating ([4]; 31 g ai/ha)	Wheat plant response rating ([5]; 31 g ai/ha)	Wheat plant response rating ([5]; 125 g ai/ha)	Corn plant response rating ([6]; 31 g ai/ha)	Foxtail, Giant plant response rating ([7]; 31 g ai/ha)	Galium plant response rating ([8]; 31 g ai/ha)	Pigweed plant response rating ([9]; 31 g ai/ha)	Pigweed plant response rating ([9]; 125 g ai/ha)	Ragweed plant response rating ([10]; 31 g ai/ha)	other results
N#Cc1cccc(Oc2ncc(Cl)cn2)c1COCCC(F)(F)F [Compound 80]	5	5	5	5	10	10	25	65	65	70	75	30	0	40	10	30	60	80	100	10	Barnyardgrass plant response rating (0 to 100 scale) ([4]; 125 g ai/ha): 90; Corn plant response rating (0 to 100 scale) ([6]; 125 g ai/ha): 60; Foxtail, Giant plant response rating (0 to 100 scale) ([7]; 125 g ai/ha): 90; Galium plant response rating (0 to 100 scale) ([8]; 125 g ai/ha): 90; Ragweed plant response rating ([10]; 125 g ai/ha): 30; Ryegrass, Italian plant response rating ([11]; 31 g ai/ha): 0; Ryegrass, Italian plant response rating ([11]; 125 g ai/ha): 50; Kochia plant response rating ([12]; 31 g ai/ha): 50; Kochia plant response rating ([12]; 125 g ai/ha): 70; Blackgrass plant response rating ([13]; 31 g ai/ha): 30; Blackgrass plant response rating (0 to 100 scale) ([13]; 125 g ai/ha): 90; Plant response rating, Kochia ([14]; 31 g ai/ha, scale 0 to 100): 95; Plant response rating, Kochia ([14]; 62 g ai/ha, scale 0 to 100): 100; Plant response rating, Kochia ([14]; 125 g ai/ha, scale of 0 to 100): 100; Plant response rating, Ducksalad [15]: 100; Plant response rating, Barnyardgrass [16]: 75; Plant response rating, Rice [17]: 55; Plant response rating, Sedge, Umbrella [18]: 100
O=C(CCCCC(F)(F)F)c1c(Br)cccc1Oc1ncc(Cl)cn1 [Compound 82]	5	20	10	30	20	20	25	40	65	85	75	30	10	30	20	30	90	100	100	40	Barnyardgrass plant response rating (0 to 100 scale) ([4]; 125 g ai/ha): 100; Corn plant response rating (0 to 100 scale) ([6]; 125 g ai/ha): 30; Foxtail, Giant plant response rating (0 to 100 scale) ([7]; 125 g ai/ha): 100; Galium plant response rating (0 to 100 scale) ([8]; 125 g ai/ha): 100; Ragweed plant response rating ([10]; 125 g ai/ha): 40; Ryegrass, Italian plant response rating ([11]; 31 g ai/ha): 40; Ryegrass, Italian plant response rating ([11]; 125 g ai/ha): 60; Kochia plant response rating ([12]; 31 g ai/ha): 80; Kochia plant response rating ([12]; 125 g ai/ha): 100; Blackgrass plant response rating ([13]; 31 g ai/ha): 40; Blackgrass plant response rating (0 to 100 scale) ([13]; 125 g ai/ha): 40; Plant response rating, Kochia ([14]; 31 g ai/ha, scale 0 to 100): 50; Plant response rating, Kochia ([14]; 62 g ai/ha, scale 0 to 100): 90; Plant response rating, Kochia ([14]; 125 g ai/ha, scale of 0 to 100): 95; Plant response rating, Ducksalad [15]: 100; Plant response rating, Barnyardgrass [16]: 35; Plant response rating, Rice [17]: 30; Plant response rating, Sedge, Umbrella [18]: 95
FC(F)(F)CCCc1c(Br)cccc1Oc1ncc(Cl)cn1 [Compound 89]	5	10	10	85	10	10	20	55	60	80	90	30	0	20	10	20	30	90	90	10	Barnyardgrass plant response rating ([4]; 125 g ai/ha): 90; Corn plant response rating ([6]; 125 g ai/ha): 20; Foxtail, Giant plant response rating ([7]; 125 g ai/ha): 50; Galium plant response rating ([8]; 125 g ai/ha): 80; Ragweed plant response rating ([10]; 125 g ai/ha): 10; Ryegrass, Italian plant response rating ([11]; 31 g ai/ha): 10; Ryegrass, Italian plant response rating ([11]; 125 g ai/ha): 30; Kochia plant response rating ([12]; 31 g ai/ha): 80; Kochia plant response rating ([12]; 125 g ai/ha): 90; Blackgrass plant response rating ([13]; 31 g ai/ha): 20; Blackgrass plant response rating ([13]; 125 g ai/ha): 60; Plant response rating, Kochia ([14]; 31 g ai/ha, scale 0 to 100): 60; Plant response rating, Kochia ([14]; 62 g ai/ha, scale 0 to 100): 85; Plant response rating, Kochia ([14]; 125 g ai/ha, scale of 0 to 100): 90; Plant response rating, Ducksalad [15]: 95; Plant response rating, Barnyardgrass [16]: 40; Plant response rating, Rice [17]: 40; Plant response rating, Sedge, Umbrella [18]: 95
